“Also recorded” adds a separate entry of the source. Where two headings read alike, the source gives them in different places.
Assays:
adult S. japonicum = assay: microbe, parasite or virus in culture; format: cell-based; conditions: for mortality at 100 µM / killing at 25 µM / killing at 50 µM / killing at 100 µM / mortality at 25 µM / mortality at 10 µM / mortality at 50 µM: Schistosoma japonicum; for mortality at 100 µM / mortality at 25 µM / mortality at 10 µM / mortality at 50 µM: read-out: Mortality of adult worms; for killing at 25 µM / killing at 50 µM / killing at 100 µM / Killing activity 24hr / Killing activity 48hr / Killing activity 72hr: adult worms
How it was run: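 Adult worm pairs recovered by portal perfusion from ICR mice 35 days after infection with 50 cercariae, cultured in RPMI 1640 (pH 7.5, 20 mM HEPES, 10% FBS) at 37 °C, 5% CO2. Oxadiazole-2-oxides at 10, 25, 50, 100 μM; motility and survival scored microscopically at 24, 48, 72 h, death being no movement over 2 min; three independent experiments averaged.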

recombinant SjTGR = target: T1, recombinant SjTGR (Schistosoma japonicum, UniProt B5THG7); assay: Inhibition of TrxR activity of recombinant SjTGR (DTNB assay); format: biochemical; conditions: 50 nM SjTGR, 1 mM NADPH, 15 min preincubation, DTNB reduction
T1 sequence (B5THG7 1-596): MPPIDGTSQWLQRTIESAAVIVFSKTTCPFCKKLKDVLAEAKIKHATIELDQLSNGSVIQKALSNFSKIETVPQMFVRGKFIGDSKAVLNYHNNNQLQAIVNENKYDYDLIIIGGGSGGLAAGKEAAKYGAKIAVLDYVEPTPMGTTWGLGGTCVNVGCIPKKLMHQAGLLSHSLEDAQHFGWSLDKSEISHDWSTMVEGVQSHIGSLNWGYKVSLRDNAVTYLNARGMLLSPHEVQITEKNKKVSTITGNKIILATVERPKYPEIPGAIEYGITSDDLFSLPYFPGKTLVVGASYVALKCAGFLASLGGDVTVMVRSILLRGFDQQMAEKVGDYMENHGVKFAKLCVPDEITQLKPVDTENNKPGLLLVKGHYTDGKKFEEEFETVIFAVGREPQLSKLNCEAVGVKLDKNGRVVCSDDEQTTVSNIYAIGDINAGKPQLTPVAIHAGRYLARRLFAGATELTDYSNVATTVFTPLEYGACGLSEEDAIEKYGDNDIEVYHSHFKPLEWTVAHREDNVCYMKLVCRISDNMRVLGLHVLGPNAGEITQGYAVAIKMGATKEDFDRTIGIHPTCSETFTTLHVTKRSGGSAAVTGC
How it was run: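 SjTGR (50 nM) preincubated 15 min at room temperature with 1 mM NADPH and oxadiazole-2-oxides (2-20 μM). Reaction started with potassium phosphate pH 7.4, 10 mM EDTA, 100 μM NADPH, 3 mM DTNB; A412 increase followed over first 2 min, triplicates.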

[1] = 25 μM, 24 h, read-out: Killing activity 24hr
[2] = 25 μM, 48 h, read-out: Killing activity 48hr
[3] = 25 μM, 72 h, read-out: Killing activity 72hr
[4] = 24 h, read-out: Killing activity 24hr
[5] = 48 h, read-out: Killing activity 48hr
[6] = 72 h, read-out: Killing activity 72hr

Structure (SMILES) | killing at 25 µM (adult S. japonicum; [1]) | killing at 25 µM (adult S. japonicum; [2]) | killing at 25 µM (adult S. japonicum; [3]) | killing at 50 µM (adult S. japonicum; [4]) | killing at 50 µM (adult S. japonicum; [5]) | killing at 50 µM (adult S. japonicum; [6]) | killing at 100 µM (adult S. japonicum; [4]) | killing at 100 µM (adult S. japonicum; [5]) | killing at 100 µM (adult S. japonicum; [6]) | Killing activity 24hr (adult S. japonicum; 10 μM, 24 h) | Killing activity 48hr (adult S. japonicum; 10 μM, 48 h) | Killing activity 72hr (adult S. japonicum; 10 μM, 72 h) | IC50 (recombinant SjTGR; read-out: IC50 of SjTGR) | mortality at 25 µM (adult S. japonicum; 24 h) | further results
COc1ccc(-c2no[n+]([O-])c2CO)cc1 [Compound 4a] | 50% | 100% | 100% | 88.9% | 100% | 100% | 100% | 100% | 100% | 37.5%D | 37.5%D | 50.0%D | 2.7 µM | – | mortality at 100 µM (adult S. japonicum): 100%
Cc1ccc(-c2no[n+]([O-])c2CO)cc1 [Compound 4b] | 63.6% | 81.8% | 66.7% | 60% | 80% | 100% | 57.1% | 100% | 100% | n.e. | n.e. | n.e. | 1.7 µM | – | mortality at 100 µM (adult S. japonicum; 24 h): 57.1 ± 2.1%; mortality at 100 µM (adult S. japonicum; 48 h): 100%
COc1ccc(-c2no[n+]([O-])c2C#N)cc1 [Compound 7a] | 88.9% | 100% | 100% | 87.5% | 100% | 100% | 100% | 100% | 100% | 70.0%D | 100.0%D | 100.0%D | – | > 75% | mortality at 10 µM (adult S. japonicum; 72 h): 100%; IC50 (recombinant SjTGR; IC50 of SjTGR): 12.2 µM
Cc1ccc(-c2no[n+]([O-])c2C#N)cc1 [Compound 7b] | 100% | 100% | 100% | 100% | 100% | 100% | 100% | 100% | 100% | 16.7%D | 50.0%D | 83.3%D | – | > 75% | mortality at 10 µM (adult S. japonicum; 72 h): 83.3 ± 4.7%; IC50 (recombinant SjTGR; IC50 of SjTGR): 14.2 µM
N#Cc1c(-c2ccc(Br)cc2)no[n+]1[O-] [Compound 7c] | 77.8% | 100% | 100% | 100% | 100% | 100% | 100% | 100% | 100% | n.e. | 70.0%D | 70.0%D | – | > 75% | mortality at 50 µM (adult S. japonicum; 24 h): 100%; mortality at 10 µM (adult S. japonicum; 72 h): 70 ± 7.1%; IC50 (recombinant SjTGR; IC50 of SjTGR): 3.7 µM
N#Cc1c(-c2ccc(O)cc2)no[n+]1[O-] [Compound 8] | 50% | 66.7% | 100% | 77.8% | 88.9% | 100% | 100% | 100% | 100% | n.e. | 57.1%D | 71.4%D | – | – | mortality at 10 µM (adult S. japonicum; 72 h): 71.4 ± 0.9%; IC50 (recombinant SjTGR; IC50 of SjTGR): 37.4 µM
N#Cc1c(-c2ccc(OCCBr)cc2)no[n+]1[O-] [Compound 12] | 80% | 100% | 100% | 88.9% | 100% | 100% | 100% | 100% | 100% | sluggish | sluggish | 55.6%D | 21.7 µM | > 75% | –
N#Cc1c(-c2ccc(OCCCBr)cc2)no[n+]1[O-] [Compound 13] | – | 100% | 100% | 100% | 100% | 100% | 100% | 100% | 100% | sluggish | 90.0%D | 100%D | 1.6 µM | – | mortality at 50 µM (adult S. japonicum; 24 h): 100%; Killing activity 24hr (adult S. japonicum; 25 μM, 24 h): sluggish
N#Cc1c(-c2ccc(OC/C=C/CBr)cc2)no[n+]1[O-] [Compound 16] | 50% | 75% | 100% | 100% | 100% | 100% | 100% | 100% | 100% | n.e. | 50.0%D | 80.0%D | 0.5 µM | – | mortality at 50 µM (adult S. japonicum; 24 h): 100%
N#Cc1c(-c2ccc(OCc3ccccc3)cc2)no[n+]1[O-] [Compound 19] | 100% | 100% | 100% | 100% | 100% | 100% | 100% | 100% | 100% | 80.0%D | 100%D | 100%D | > 20 µM | > 75% | IC50 of SjTGR (recombinant SjTGR): did not inhibit; also recorded: neither did they inhibit the SjTGR activity
C#CCOc1ccc(-c2no[n+]([O-])c2C#N)cc1 [Compound 20] | 50% | 100% | 100% | 70% | 100% | 100% | 100% | 100% | 100% | n.e. | 50.0%D | 75.0%D | 3.3 µM | – | mortality at 100 µM (adult S. japonicum): 100%
N#Cc1c(-c2ccc(COc3ccccc3)cc2)no[n+]1[O-] [Compound 23] | 100% | 100% | 100% | 100% | 100% | 100% | 100% | 100% | 100% | 62.5%D | 87.5%D | 100%D | > 20 µM | > 75% | IC50 of SjTGR (recombinant SjTGR): did not inhibit
N#Cc1c(-c2ccc(COc3ccc(C=O)cc3)cc2)no[n+]1[O-] [Compound 26] | 85.7% | 100% | 100% | 100% | 100% | 100% | 100% | 100% | 100% | n.e. | n.e. | 16.7%D | > 20 µM | > 75% | IC50 of SjTGR (recombinant SjTGR): did not inhibit; also recorded: neither did they inhibit the SjTGR activity
Cc1ccc2cccc(OCc3ccc(-c4no[n+]([O-])c4C#N)cc3)c2n1 [Compound 28] | 100% | 100% | 100% | 100% | 100% | 100% | 100% | 100% | 100% | 57.1%D | 57.1%D | 71.4%D | > 20 µM | > 75% | IC50 of SjTGR (recombinant SjTGR): did not inhibit
